Results: PubChem BioAssay AID256 (DTP/NCI, 2004)
Several values for one entry are separate records, joined by “and”; a condition that tells them apart may be missing. Identical values can stand only once. Toxic doses and inconclusive results are not listed. Positions of bridges follow the written chain, without caps; N, C: chain ends. Residues, ends and D or L forms follow the SMILES beside them. Chains are numbered I, II in the order given. *: point of attachment. Bz = O=C(c1ccccc1)*

Tested on: CD2F1 mice, L1210 leukemia ip, survival T/C
Experiment: NCI In Vivo Anticancer Drug Screen. Data for tumor model L1210 Leukemia (intraperitoneal) in CD2F1 (CDF1) mice
Conditions: endpoint: mean survival time, higher = longer survival
Summary of the method: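 In this screen, transplantable tumors were grown in mice given either the compound or its vehicle. Results were expressed as the treated measurement relative to the control measurement.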

[1] = dose: 100.0 mg/kg/injection, schedule: Q01DX009 (ip), vehicle: saline with Tween-80
[2] = dose: 100.0 mg/kg/injection, schedule: Q04DX003 (ip), vehicle: saline with Tween-80
[3] = dose: 200.0 mg/kg/injection, schedule: Q01DX009 (ip), vehicle: saline with Tween-80
[4] = dose: 200.0 mg/kg/injection, schedule: Q04DX003 (ip), vehicle: saline with Tween-80
[5] = dose: 400.0 mg/kg/injection, schedule: Q01DX009 (ip), vehicle: saline with Tween-80
[6] = dose: 400.0 mg/kg/injection, schedule: Q04DX003 (ip), vehicle: saline with Tween-80
[7] = dose: 100.0 mg/kg/injection, schedule: Q01DX001 (ip), vehicle: saline with Tween-80
[8] = dose: 200.0 mg/kg/injection, schedule: Q01DX001 (ip), vehicle: saline with Tween-80
[9] = dose: 400.0 mg/kg/injection, schedule: Q01DX001 (ip), vehicle: saline with Tween-80
[10] = dose: 100.0 mg/kg/injection, schedule: Q04DX002 (ip), vehicle: saline with Tween-80
[11] = dose: 200.0 mg/kg/injection, schedule: Q04DX002 (ip), vehicle: saline with Tween-80
[12] = dose: 400.0 mg/kg/injection, schedule: Q04DX002 (ip), vehicle: saline with Tween-80
[13] = dose: 25.0 mg/kg/injection, schedule: Q01DX009 (ip), vehicle: saline with Tween-80
[14] = dose: 50.0 mg/kg/injection, schedule: Q01DX009 (ip), vehicle: saline with Tween-80

With `N#CNC(N)=O` the T/C (dose: 100.0 mg/kg/injection, schedule: Q01DX009 (ip), vehicle: saline sonified) was 102 % of control, the T/C (dose: 200.0 mg/kg/injection, schedule: Q01DX009 (ip), vehicle: saline sonified) was 96 % of control and the T/C (dose: 400.0 mg/kg/injection, schedule: Q01DX009 (ip), vehicle: saline sonified) was 100 % of control.

For `c1ccc(-c2nc3c(c(-c4ccccc4)n2)CCO3)cc1`, the T/C [1] was 95 % of control, the T/C [2] was 98 % of control and the T/C [3] was 93 % of control. For the same compound, the T/C [4] was 100 % of control, the T/C [5] was 95 % of control and the T/C [6] was 90 % of control.

For `F[Si](c1ccccc1)(c1cccc2ccccc12)c1cccc2ccccc12`, the T/C [1] was 96 % of control, the T/C [3] was 100 % of control and the T/C [5] was 95 % of control.

`O=C(CNC(=O)c1ccccc1)N/N=C/Cc1ccccc1` was tested, and the T/C [1] was 97 % of control, the T/C [3] was 104 % of control and the T/C [5] was 104 % of control.

With `Cc1cc(C)c(N(CC(=O)O)S(=O)(=O)c2ccccc2)c(C)c1N(CC(=O)O)S(=O)(=O)c1ccccc1` the T/C [7] was 97 % of control, the T/C [8] was 105 % of control and the T/C [9] was 103 % of control.

For `c1ccc(OCC2(N3CCCCC3)CCCC2)cc1`, the T/C (dose: 25.0 mg/kg/injection, schedule: Q04DX002 (ip), vehicle: saline with Tween-80) was 103 % of control and the T/C (dose: 50.0 mg/kg/injection, schedule: Q04DX002 (ip), vehicle: saline with Tween-80) was 108 % of control.

With `Cc1ccc(S(=O)(=O)OC2C(O)OCC3OC(C)(C)OC32)cc1` (stereo not given) the T/C [2] was 98 % of control, the T/C [4] was 102 % of control and the T/C [6] was 93 % of control.

In the case of `CCOS(=O)(=O)c1ccc(N)c([N+](=O)[O-])c1`, the T/C (dose: 100.0 mg/kg/injection, schedule: Q01DX001 (ip), vehicle: Klucel (hydroxypropylcellulose) (HPC)) is reported as 100 % of control, the T/C (dose: 100.0 mg/kg/injection, schedule: Q01DX009 (ip), vehicle: Klucel (hydroxypropylcellulose) (HPC)) is reported as 100 % of control and the T/C (dose: 200.0 mg/kg/injection, schedule: Q01DX001 (ip), vehicle: Klucel (hydroxypropylcellulose) (HPC)) is reported as 111 % of control. The T/C (dose: 200.0 mg/kg/injection, schedule: Q01DX009 (ip), vehicle: Klucel (hydroxypropylcellulose) (HPC)) was 100 % of control and the T/C (dose: 400.0 mg/kg/injection, schedule: Q01DX001 (ip), vehicle: Klucel (hydroxypropylcellulose) (HPC)) was 100 % of control.

In the case of `CC12CCC(=O)C=C1CC(CC(=O)O)CC2` (stereo not given), the T/C [10] is reported as 100 % of control, the T/C [11] is reported as 108 % of control and the T/C [12] is reported as 104 % of control.

For `COC(=O)C(CSSCC(NC(=O)CNC(=O)c1ccccc1)C(=O)OC)NC(=O)CNC(=O)c1ccccc1` (stereo not drawn) (I: Bz-Gly-Cys-OMe / II: Bz-Gly-Cys-OMe; disulfide I:2-II:2; configuration not given here), the T/C [7] was 108 % of control, the T/C [1] was 87 % of control and the T/C [8] was 102 % of control. For the same compound, the T/C [3] was 87 % of control and the T/C [9] was 97 % of control.

In the case of `Cc1ccc(N=Nc2sc(N)nc2-c2cccc([N+](=O)[O-])c2)cc1`, the T/C [7] is reported as 89 % of control and the T/C [8] is reported as 96 % of control.

For `O=C(O)c1ccccc1O.[Fe]`, the T/C (dose: 200.0 mg/kg/injection, schedule: Q01DX001 (ip), vehicle: saline) was 112 % of control.

With `CC(Sc1ccccc1)C(=O)OC1C=CCCC1` (stereo not given) the T/C [10] was 98 % of control, the T/C [11] was 106 % of control and the T/C [12] was 98 % of control.

`Cc1cc(C)c(N2C(=O)CC(Sc3ccccc3N)C2=O)c(C)c1` (stereo not given) was tested, and the T/C [1] was 92 % of control, the T/C [3] was 96 % of control and the T/C [5] was 94 % of control.

For `Cc1ccc(S(=O)(=O)OC2C3OCC(O3)C3OC(C)OC32)cc1` (stereo not given), the T/C [1] was 92 % of control, the T/C [3] was 95 % of control and the T/C [5] was 95 % of control.

`CCCCCCCCCCCCSC(=S)S` was tested, and the T/C [10] was 87 % of control, the T/C [11] was 91 % of control and the T/C [12] was 91 % of control.

`CN(C)C(=O)c1cccc(COc2ccc(N)cc2Cl)c1` was tested, and the T/C (dose: 50.0 mg/kg/injection, schedule: Q01DX009 (ip), vehicle: saline) was 113 % of control, the T/C [1] was 90 % of control and the T/C (dose: 100.0 mg/kg/injection, schedule: Q01DX009 (ip), vehicle: saline) was 104 % of control. For the same compound, the T/C [3] was 93 % of control, the T/C (dose: 200.0 mg/kg/injection, schedule: Q01DX009 (ip), vehicle: saline) was 105 % of control and the T/C [4] was 87 % of control. The T/C [5] was 95 % of control and the T/C [6] was 89 % of control.

`Cc1cc(Cl)nc(N)n1` was tested, and the T/C (dose: 100.0 mg/kg/injection, schedule: Q04DX002 (ip), vehicle: Klucel (hydroxypropylcellulose) (HPC)) was 90 % of control and the T/C (dose: 200.0 mg/kg/injection, schedule: Q04DX002 (ip), vehicle: Klucel (hydroxypropylcellulose) (HPC)) was 86 % of control.

`Cc1c2c(cc3c1CCC1(C)C3CCC1C(C)CCC(C)C(C)C)CCCC2` (stereo not given) was tested, and the T/C [2] was 94 % of control, the T/C [4] was 94 % of control and the T/C [6] was 89 % of control.

`N#CSc1nc2ccccc2s1` was tested, and the T/C [13] was 96 % of control, the T/C [14] was 94 % of control and the T/C [1] was 97 % of control.

With `C=CCSc1ncnc2c1c(Br)cn2C1OC(CO)C(O)C1O` (stereo not given) the T/C (dose: 75.0 mg/kg/injection, schedule: Q01DX001 (ip), vehicle: saline) was 101 % of control, the T/C (dose: 150.0 mg/kg/injection, schedule: Q01DX001 (ip), vehicle: saline) was 107 % of control and the T/C (dose: 300.0 mg/kg/injection, schedule: Q01DX001 (ip), vehicle: saline) was 106 % of control.

With `COc1cc2c(c(OC)c1OC)-c1ccc(SC)c(=O)cc1[C@@H](NC(C)=O)CC2` the T/C (dose: 0.2 mg/kg/injection, schedule: Q01DX009 (ip), vehicle: Klucel (hydroxypropylcellulose) (HPC)) was 86 % of control, the T/C (dose: 0.75 mg/kg/injection, schedule: Q04DX002 (ip), vehicle: Klucel (hydroxypropylcellulose) (HPC)) was 121 % of control and the T/C (dose: 3.0 mg/kg/injection, schedule: Q04DX002 (ip), vehicle: Klucel (hydroxypropylcellulose) (HPC)) was 118 % of control and 95 % of control. For the same compound, the T/C (dose: 6.0 mg/kg/injection, schedule: Q04DX002 (ip), vehicle: Klucel (hydroxypropylcellulose) (HPC)) was 97 % of control.

For `COc1cccc2c1C(=O)c1c(O)c3c(c(O)c1C2=O)C[C@@](O)(C(=O)COC(=O)Cc1cccc2ccccc12)C[C@@H]3OC1CC(N)C(O)C(C)O1` (stereo not given in full), the T/C (dose: 0.5 mg/kg/injection, schedule: Q01DX009 (ip), vehicle: saline with Tween-80) was 118 % of control, the T/C (dose: 1.0 mg/kg/injection, schedule: Q01DX001 (ip), vehicle: other) was 116 % of control and the T/C (dose: 2.5 mg/kg/injection, schedule: Q01DX001 (ip), vehicle: saline with Tween-80) was 117 % of control. For the same compound, the T/C (dose: 5.0 mg/kg/injection, schedule: Q04DX003 (ip), vehicle: other) was 152 % of control, the T/C (dose: 8.0 mg/kg/injection, schedule: Q01DX009 (ip), vehicle: saline with Tween-80) was 122 % of control and the T/C (dose: 10.0 mg/kg/injection, schedule: Q04DX003 (ip), vehicle: saline with Tween-80) was 151 % of control. The T/C (dose: 16.0 mg/kg/injection, schedule: Q01DX009 (ip), vehicle: saline with Tween-80) was 88 % of control and the T/C (dose: 32.0 mg/kg/injection, schedule: Q01DX001 (ip), vehicle: other) was 90 % of control.

With `C=Cc1c(C)c2cc3[nH]c(cc4nc(cc5nc(cc1[nH]2)C(C)=C5CCC(=O)O)C(CCC(=O)O)=C4C)c(C)c3C=C` the T/C (dose: 12.5 mg/kg/injection, schedule: Q01DX009 (ip), vehicle: saline with Tween-80) was 88 % of control, the T/C [13] was 88 % of control and the T/C [14] was 88 % of control.

For `CC(=O)NNC(=O)c1ccc(N(C)C)cc1`, the T/C (dose: 12.5 mg/kg/injection, schedule: Q01DX009 (ip), vehicle: other) was 92 % of control, the T/C (dose: 25.0 mg/kg/injection, schedule: Q01DX009 (ip), vehicle: other) was 88 % of control and the T/C (dose: 50.0 mg/kg/injection, schedule: Q01DX009 (ip), vehicle: other) was 88 % of control. For the same compound, the T/C (dose: 100.0 mg/kg/injection, schedule: Q01DX009 (ip), vehicle: other) was 92 % of control and the T/C (dose: 200.0 mg/kg/injection, schedule: Q01DX009 (ip), vehicle: other) was 92 % of control.
